Patent US20150024008A1, “Methods and Compositions Involving Induced Senescent Cells for Cancer Treatment” (THE UNIVERSITY OF CHICAGO, priority 2011, published 2015)

Columns and labels:
[1] = test system: murine pancreatic cancer cell line p1048; assay: SA-βGal staining and cytokine expression in p1048 cells; assay type: cell-based, mouse
Protocol: (§1) Slides were deparaffinized in xylene and hydrated with alcohol before being placed in 0.3% H2O2/methanol blocking solution to quench endogenous peroxidase activity followed by subsequent antigen unmasking in EDTA buffer. […] Reactions were developed with 3,3′-diaminobenzidine chromogen or Vulcan Red, respectively, and counterstained with hematoxylin. Negative controls were obtained by using isotype-matched primary antibody IgG. The SA-βGal assay was performed using the Senescence Beta-galactosidase Staining Kit (Cell Signaling) (Dunn 2006). All images were captured using Zeiss Axiovert 200M and Zeiss Axiocam color digital camera controlled by OpenLab software with a 20× objective. All primers sequence and running protocols for RT-PCR can be found in reference Table 2 (Lugade 2008, Zhang 2008).

[2] = test system: 22Rv1 (human) prostate carcinoma cells; assay: Flow cytometric detection of SA-βGal with DDAO-G; assay type: cell-based
Protocol: Prostate carcinoma (PCa) cell lines included 22Rv1 (human) and TRAMP-C2 (murine, ATCC). PCa cell lines were propagated in complete culture medium using sterile culture flasks in a humidified, 5% CO2 incubator at 37° C. For 22Rv1 human PCa cells, complete media consisted of RPMI-1640 1× (modified without L-glutamine, Invitrogen) supplemented with fetal bovine serum (FBS, 10%, Gemini Biosciences), stabilized L-glutamine (2 mM, Gemini Biosciences), and penicillin-streptomycin solution (100 U/ml penicillin, 100 μg/ml streptomycin, Invitrogen). For TRAMP-C2 murine PCa cells, complete medium consisted of DMEM (modified with 4.5 g/l glucose and without L-glutamine, Invitrogen) supplemented with FBS (5%), Nu-Serum IV (5%, BD Biosciences), stabilized L-glutamine (4 mM), dehydroisoandrosterone (10 nM, Sigma-Aldrich), bovine insulin (5 μg/ml, Sigma-Aldrich), and penicillin-streptomycin solution (100 U/ml penicillin, 100 μg/ml streptomycin).
Cells were plated at low density (˜25×10^3 cells/cm^2) and incubated overnight to allow adherence to culture surfaces. The following day, PARP inhibitor veliparib (ABT-888, 10 μM in DMSO, ChemieTek) was added (or not) to freshly changed media to enhance uptake of the compound. Cells were incubated with veliparib for 60 minutes at 37° C. in 5% CO2 prior to gamma irradiation (IR, 6 Gy). Treated and untreated cells were then incubated undisturbed for 5 days to allow senescence to proceed.
Cells were pelleted by centrifugation for 5 minutes at 1000×g, supernatant removed, and pellet resuspended in 1% bovine serum albumin (BSA, United States Biological) in DPBS. Cell suspensions were counted (cells/mL) using a handheld counting device (Scepter, Millipore). […]
Analysis of SA-βGal signal was conducted by flow cytometry, using an LSRII cytometer (Becton Dickinson) equipped with a 633 nm red diode laser and a 670/30 (APC) bandpass filter suitable for DDAO red fluorescent signal excitation and emission detection. […] Single, whole cells were then visualized on a red-fluorescence vs SSC-A plot in order to define senescent SA-βGal^+ SSC^high cells. […]

[3] = test system: B16SIY murine melanoma cells; assay: DNA damage foci (γH2AX, 53BP1) and SA-βGal senescence in B16SIY cells in vitro; assay type: cell-based, mouse; details: with IR
Protocol: as §1
(§2) B16SIY cells were maintained in a full medium supplemented with 10% FCS. The cells were pretreated with 10 μm veliparib then exposed to 6 or 12 Gy x-ray or IR alone (Gammacell 1000; MDS Nordion, Kanata, Ontario, Canada), then cocultured with immature BM-DC in a transwell system. 3 days later BM-DC were collected and analyzed by FACS for cell surface maturation marker and intracellular cytokines. These BM-DC were used to stimulate sorted CD4+ cells (Lugade 2008, Zhang 2008).

[4] = test system: B16 melanoma cells; assay: RT-qPCR of SASP cytokines in B16 cells treated in vitro; assay type: cell-based, mouse; details: veliparib+IR
Protocol: as §1, §2

[5] = test system: B16 tumors; assay: Flow cytometry of tumor infiltrating lymphocytes from B16 tumors; assay type: in vivo, mouse; details: veliparib+IR
Protocol: (§3) Mouse melanoma cell line B16SIY (5×10^5 cells) were implanted subcutaneously in the flank of 6 to 8-wk-old C57/B6 mice. Tumors were allowed to grow until they reached a volume of about 100 to 150 mm^3 (approximately 2 wk) before treatment with PARP inhibitor veliparib (vrib, (R)-2-(2-methylpyrrolidin-2-yl)-1H-benzo[d]imidazole-4-carboxamide, ABT-888) and/or IR (Dunn 2006). Mice received 0.5 mg of veliparib in water twice daily by oral gavage as indicated. CD8^+, CD4^+, NK cells were depleted by anti-CD8 or anti-CD4 or anti-NK1.1, respectively, 1 d before IR. Depletion was confirmed by checking peripheral blood samples by flow cytometry. Macrophages were depleted with liposomal clodronate starting 1 d before IR. Depletion was confirmed by checking splenocyte and tumor samples by flow cytometry (Zhang 2008). Samples were collected 2 to 7 days later, and analyzed by flow cytometry using a BD LSRII flow cytometer. Blood samples were gated in forward scatter and side scatter on smaller cells for CD8, CD4 analysis, larger cells for NK and macrophage, and the percentage of different cell types were determined (Lugade 2008, Zhang 2010).

[6] = test system: B16SIY murine melanoma tumors; assay: H/E and SA-βGal staining of treated B16 tumors; assay type: in vivo, mouse; details: veliparib+IR vs IR or veliparib alone; 7 days after IR
Protocol: as §3
Slides were deparaffinized in xylene and hydrated with alcohol before being placed in 0.3% H2O2/methanol blocking solution to quench endogenous peroxidase activity followed by subsequent antigen unmasking in EDTA buffer. […]

[7] = veliparib+IR, 7 days after irradiation
[8] = veliparib+IR cells, FSC vs. SSC

For `C[C@]1(c2nc3c(C(N)=O)cccc3[nH]2)CCCN1` [veliparib, (R)-2-(2-methylpyrrolidin-2-yl)-1H-benzo[d]imidazole-4-carboxamide], which “accelerated senescence and SASP” value ([1]; veliparib and 12 Gy) is on record?
The value was “entering accelerated senescence and displaying an altered SASP”.

What about the SA-βGal staining [1, 7] of the same compound?
The SA-βGal staining was “induced SA-βGal staining”.

What about the cytokine expression [1, 7] of the same compound?
The cytokine expression was “upregulation of multiple cytokines”.

And the “B-Gal high cells within the region shown by the black rectangle” value [2, 8]?
Its value is 41%.

What about the “B-Gal- or B-Gal low cells within the region shown by the black rectangle” value [2, 8] of the same compound?
Its value is 59%.

What about the “cells in senescent gate (B-Gal vs. SSC)” value ([2]; veliparib+IR treated viable cells) of the same compound?
Its value is 20%.

What about the “DNA damage foci resolution (γH2AX, p53BP1)” value ([3]; 24 h) of the same compound?
The value was “delayed DNA damage foci resolution”.

What about the “accelerated senescence (cell morphology, SA-βGal)” value ([3]; day 7) of the same compound?
The value was “induced accelerated senescence”.

And the “chemokine expression (CCL2, CCL3, CCL5, CXCL9, CXCL10, CXCL11)” value [4]?
The value was “upregulated”.

What about the IFNβ transcription ([4]; 7 days after 6 Gy) of the same compound?
The IFNβ transcription was “increased transcription of IFNβ”.

And the IL-6 transcription ([4]; 7 days after 6 Gy)?
The IL-6 transcription was “decreased IL-6”.

What about the “NK cells in tumors” value [5] of the same compound?
The value was “more abundant”.

And the “proportion of IFNγ-producing CD8+ cells among tumor infiltrating lymphocytes” value [5]?
The value was 29%.

What about the “enlarged cells and SA-βGal staining in tumors” value [6] of the same compound?
Its value is “greater numbers of enlarged cells and more intense SA-βGal staining”.
